Experiment in all cases: stopped-flow CO2 hydration assay
Holding throughout (format): biochemical

The target in test [1] is T1, hCA II (Homo sapiens, UniProt P00918).
T1 construct: gene CA2; recombinant, obtained in-house as reported earlier; cytosolic
The settings on record: read-out: KI (nM)^a,b / hCA I.

The next test has as its target T2, hCA I (Homo sapiens, UniProt P00915).
T2 construct: gene CA1; recombinant, obtained in-house as reported earlier; cytosolic
The settings on record: read-out: KI (nM)^a,b / hCA I. The text has this: stopped-flow CO2 hydration assay on hCA I

For test [2], the target named is T1, hCA II. To be noted: read-out: KI (nM)^a,b / hCA II. The text has this: stopped-flow CO2 hydration assay on hCA II

The structures appear in SMILES notation. Where two headings read alike, the source gives them in different places. Some results are limits rather than exact numbers.

T2 sequence (P00915 2-261): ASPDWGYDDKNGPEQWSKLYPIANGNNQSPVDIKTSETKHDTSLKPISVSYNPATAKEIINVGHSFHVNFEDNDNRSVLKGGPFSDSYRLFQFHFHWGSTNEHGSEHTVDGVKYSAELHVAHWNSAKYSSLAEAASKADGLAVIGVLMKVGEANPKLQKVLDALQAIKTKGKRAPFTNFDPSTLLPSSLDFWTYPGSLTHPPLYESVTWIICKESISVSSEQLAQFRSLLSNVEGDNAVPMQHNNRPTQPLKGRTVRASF

For the compound `COc1cccc2c1C(C)=NS(=O)(=O)O2` [2a, 5-Methoxy-4-methyl-1,2,3-benzoxathiazine 2,2-dioxide], the Ki at hCA II [1] and at hCA I was > 100000 nM in each case.
For the compound `CC1=NS(=O)(=O)Oc2ccc(-c3ccc(F)cc3)cc21` [5b, 6–(4-Fluorophenyl)-4-methyl-1,2,3-benzoxathiazine 2,2-dioxide], the Ki turned out to be 24500 nM at hCA I and 1530 nM on hCA II [2].
For `CC1=NS(=O)(=O)Oc2cc(Br)ccc21` [2j, 7-Bromo-4-methyl-1,2,3-benzoxathiazine 2,2-dioxide] the same measures were > 100000 nM and 11500 nM.
The corresponding values for `CC1=NS(=O)(=O)Oc2ccc(C)cc21` [2b, 4,6-Dimethyl-1,2,3-benzoxathiazine 2,2-dioxide] are 21000 nM and 457 nM.
For `CC1=NS(=O)(=O)Oc2ccc(Cl)cc21` [2d, 6-Chloro-4-methyl-1,2,3-benzoxathiazine 2,2-dioxide] the same measures were 45700 nM and 634 nM.
As to `CC1=NS(=O)(=O)Oc2cc(C)ccc21` [2f, 4,7-Dimethyl-1,2,3-benzoxathiazine 2,2-dioxide], the Ki on hCA I stood at 33200 nM; at hCA II [2], 788 nM.
`COc1ccc(-c2ccc3c(c2)OS(=O)(=O)N=C3C)cc1` [5h, 7–(4-Methoxyphenyl)-4-methyl-1,2,3-benzoxathiazine 2,2-dioxide]: the Ki at hCA I is > 100000 nM; at hCA II [2], 3170 nM.
For `CC1=NS(=O)(=O)Oc2ccc(Br)cc21` [2e, 6-Bromo-4-methyl-1,2,3-benzoxathiazine 2,2-dioxide] the same measures were > 100000 nM and 5570 nM.
The corresponding values for `CC1=NS(=O)(=O)Oc2cc(-c3ccc(F)cc3)ccc21` [5g, 7–(4-Fluorophenyl)-4-methyl-1,2,3-benzoxathiazine 2,2-dioxide] are > 100000 nM and 5370 nM.
For `CCOC(=O)c1ccc(-c2ccc3c(c2)C(C)=NS(=O)(=O)O3)cc1` [5e, Ethyl 4–(4-methyl-2,2-dioxido-1,2,3-benzoxathiazin-6-yl)benzoate] the same measures were 19600 nM and 8250 nM.
Consider `CC1=NS(=O)(=O)Oc2cc(-c3ccccc3)ccc21` [5f, 4-Methyl-7-phenyl-1,2,3-benzoxathiazine 2,2-dioxide], for which the results for the Ki at hCA I and at hCA II [2] were > 100000 nM and 2360 nM, respectively.
The corresponding values for `CC1=NS(=O)(=O)Oc2cc(-c3ccc(Cl)c(Cl)c3)ccc21` [5i, 7–(3,4-Dichlorophenyl)-4-methyl-1,2,3-benzoxathiazine 2,2-dioxide] are > 100000 nM and 10000 nM.
For the compound `CC1=NS(=O)(=O)Oc2ccc(F)cc21` [2c, 6-Fluoro-4-methyl-1,2,3-benzoxathiazine 2,2-dioxide], the values for the Ki on hCA I and on hCA II [2] were 12400 nM and 229 nM, respectively.
For `CCOC(=O)c1ccc(-c2ccc3c(c2)OS(=O)(=O)N=C3C)cc1` [5j, Ethyl 4–(4-methyl-2,2-dioxido-1,2,3-benzoxathiazin-7-yl)benzoate] the same measures were > 100000 nM and 6780 nM.
For `COc1ccc2c(c1)OS(=O)(=O)N=C2C` [2g, 7-Methoxy-4-methyl-1,2,3-benzoxathiazine 2,2-dioxide] the same measures were 24900 nM and 559 nM.
For `CC1=NS(=O)(=O)Oc2cc(F)ccc21` [2h, 7-Fluoro-4-methyl-1,2,3-benzoxathiazine 2,2-dioxide] the same measures were 10500 nM and 284 nM.
`CC1=NS(=O)(=O)Oc2cc(Cl)ccc21` [2i, 7-Chloro-4-methyl-1,2,3-benzoxathiazine 2,2-dioxide]: the Ki at hCA I was 82100 nM; on hCA II [2], 1660 nM.
The corresponding values for `CC1=NS(=O)(=O)Oc2ccc(-c3ccc(Cl)c(Cl)c3)cc21` [5d, 6–(3,4-Dichlorophenyl)-4-methyl-1,2,3-benzoxathiazine 2,2-dioxide] are > 100000 nM and 4530 nM.
For `COc1ccc(-c2ccc3c(c2)C(C)=NS(=O)(=O)O3)cc1` [5c, 6–(4-Methoxyphenyl)-4-methyl-1,2,3-benzoxathiazine 2,2-dioxide] the same measures were 70500 nM and 7120 nM.
Consider `CC1=NS(=O)(=O)Oc2ccc(-c3ccccc3)cc21` [5a, 4-Methyl-6-phenyl-1,2,3-benzoxathiazine 2,2-dioxide], for which the values for the Ki on hCA I and on hCA II [2] were 60600 nM and 936 nM, respectively.

The record behind these values is publication PMC9891166, “Derivatives of 4-methyl-1,2,3-benzoxathiazine 2,2-dioxide as selective inhibitors of human carbonic anhydrases IX and XII over the cytosolic isoforms I and II” (Journal of Enzyme Inhibition and Medicinal Chemistry, 2023).
